Measured values reported in PMC6934184, “Selective DNA-PKcs inhibition extends the therapeutic index of localized radiotherapy and chemotherapy” (The Journal of Clinical Investigation, 2019).

Biological target: T1, PRKCG (PKC gamma) (Homo sapiens, UniProt P05129)
T1 construct: purchased Thermo Fisher Scientific (Life Technologies) SelectScreen
Experiment: SelectScreen Z'LYTE
Type: biochemical
How it was run: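 SelectScreen broad panel; activity (Z'LYTE, Adapta) plus binding formats. ATP: Km app for CSF1R Z'LYTE; 10 for CAMK1 Adapta. Readout = % per kinase.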

`CN(C(=O)CN1CCOCC1)c1ccc2sc3c(-c4cccc5c(=O)cc(N6CC7CCC(C6)O7)oc45)cccc3c2c1` [NU5455] showed an inhibition at 1 µM of 7.6%.
